The source of these data is publication PMC8671752, “Effects of ex vivo Extracorporeal Membrane Oxygenation Circuits on Sequestration of Antimicrobial Agents” (Frontiers in Medicine, 2021).

Data set [1] can be described thus: Drug recovery in the Sorin ECMO circuit. As to conditions: 24 h; phosphorylcholine-coated circuit, whole human blood, 37°C; HPLC-MS/MS; % of 2 min concentration; single measurement. How it is done: Four healthy volunteers were recruited. After obtaining informed consent, 402 ml of blood was collected through the cubitus vein using disposable blood bags (Fresenius Kabi), of which 2 ml was used for a routine blood examination. Sorin (LivaNova, London, United Kingdom) and Maquet (Getinge AB, Hirrlingen, Germany) ECMO circuits were used to establish self-circulation and were primed with fresh whole human blood. After the circulation stabilized, the drugs were added to the circuit. Blood samples were collected at different time points, and the drug concentration was measured to observe the recovery rate of different drugs in the ECMO cycle.
Each circuit consisted of a membrane oxygenator, centrifugal pump, cannula, heat exchanger, and PVC tubing. The materials of each ECMO component are shown in Supplementary Material 1. A reservoir bag containing 30 mL of blood was used to construct a bypass to maintain the pressure of the circuit (Figure 1). Eight hundred milliliters of fresh whole human blood (<1 h old) was used to prime the circuit. Heparin (5,000 U) was added to the circuits to prevent clotting.
The circuit flow rate was controlled at 4–5 L/min. Circuit temperature was maintained at 37°C.
These bolus doses were selected to produce concentrations similar to clinical concentrations. The order of administration was determined according to the half-life from long to short. According to the drug instructions, none of the drugs interact with each other ([12]). Two milliliters of physiological saline solution (0.9%) was used to flush the tube after injection of all drugs to avoid drug loss at the entrance of administration.
In this study, two experiments were carried out and 26 blood samples were analyzed. The first experiment was conducted with the Maquet ECMO circuit. […] The blood samples collected at each time point were measured twice due to the uncertainty of the initial experiment.

The conditions of data set [2]: ref DrugBank [12]; cited from earlier work.
For data set [3] the following is noted: ref DrugBank [12]; cited from earlier work. This is another data set of the same source.
The conditions of data set [4]: ex vivo study by Watt et al., cited from earlier work.
The conditions of data set [5]: infants on ECMO versus infants not on ECMO; cited from earlier work.
The nature of data set [6]: Control group: spontaneous drug degradation in whole blood at 37°C. As to conditions: control of Sorin experiment; whole human blood, water bath 37°C 24 h, no circuit; HPLC-MS/MS; % of 2 min concentration; single measurement.
Protocol: Whole blood was collected in polypropylene tubes containing ethylenediaminetetraacetic acid (EDTA) from a post-oxygenator site and chilled to 4°C until further processing. […] Ten milliliters of blood were collected 2 min after the injection of all the drugs, of which 8 ml was divided into 4 tubes and stored at 4°C after 3, 6, 12, and 24 h of immersion in a water bath at 37°C separately as a control group. The blood drug concentration of the remaining 2 ml sample was regarded as the baseline value of all sampling points.
All blood samples were stored at 4°C and centrifuged (10 min at 3,000 × g) within 8 h after sampling, and the plasma was separated and stored in clean polypropylene cryogenic vials at −80°C until analysis. The blood concentration of various drugs was measured through high-performance liquid chromatography-tandem mass spectrometry (HPLC-MS/MS). The recoveries of each drug after different times of circulation were calculated based on the blood concentration at 2 min.

SMILES strings stand for the structures. Marks after values point to notes of the source that are not given here. Starred links: 1 amine or outer side, 2 acyl side, 3 side chain; linkers in the order of their positions; H or OH if unused. Positions of bridges follow the written chain, without caps; N, C: chain ends. Non-standard residues stand in square brackets, D forms with d. Residues, ends and D or L forms follow the SMILES beside them. *: point of attachment. hTyr(3S-OH,4S-OH,3'-OSO3H) = N[C@H](C(=O)O)[C@H](O)[C@@H](O)c1ccc(O)c(OS(=O)(=O)O)c1; Orn(4R-OH,5R-OH) = O=C([C@H](C[C@@H](O)[C@@H](O)N[*:3])N[*:1])[*:2]; Pro(3S-OH,4S-Me) = C[C@H]1CN[C@H](C(=O)O)[C@H]1O; X2 = CCCCCOc1ccc(-c2cc(-c3ccc(C(=O)*)cc3)no2)cc1; Gln(3R-OH) = NC(=O)C[C@@H](O)[C@H](N)C(=O)O; Hyp = O=C(O)[C@@H]1C[C@@H](O)CN1 Bounds are passed on as bounds.

Regarding `CCCCCOc1ccc(-c2cc(-c3ccc(C(=O)N[C@H]4C[C@@H](O)[C@@H](O)NC(=O)[C@@H]5[C@@H](O)[C@@H](C)CN5C(=O)[C@H]([C@H](O)CC(N)=O)NC(=O)[C@H]([C@H](O)[C@@H](O)c5ccc(O)c(OS(=O)(=O)O)c5)NC(=O)[C@@H]5C[C@@H](O)CN5C(=O)[C@H]([C@@H](C)O)NC4=O)cc3)no2)cc1` [Micafungin, micafungin] (X2-[Orn(4R-OH,5R-OH)]T[Hyp][hTyr(3S-OH,4S-OH,3'-OSO3H)][Gln(3R-OH)][Pro(3S-OH,4S-Me)]; lactam 1-C), in data set [1], the “Drug recovery, Sorin circuit, 24 h” value is on record as 66.85 (-)^* %. The “Lipophilicity (log P)” value in data set [2] is given as −1.5. In addition, in data set [3], the “Protein binding rate (%)” value is more than 99%. In addition, in data set [4] (control group), the “Average drug recovery in the control group at 24 h” value was 57%. In addition, in data set [4], the “Average drug recovery in the ECMO loop at 24 h” value is reported as 26–43%. The “Vd in infants on ECMO, higher than in infants not on ECMO” value in data set [5] is listed as 20–90%. The “Drug recovery, Control-24 h (Sorin experiment)” value in data set [6] is reported as 98.82 (-)^* %.
